Test results as given in PubChem BioAssay AID256 (DTP/NCI, 2004).
Where “and” joins values, the source holds several entries; their conditions need not be identical. Identical values can stand only once. Toxic doses and inconclusive results are not listed.

System: CD2F1 mice, L1210 leukemia ip, survival T/C
Assay: NCI In Vivo Anticancer Drug Screen. Data for tumor model L1210 Leukemia (intraperitoneal) in CD2F1 (CDF1) mice
Conditions: higher = longer survival
Procedure, shortened: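 Activity against a transplanted murine tumor was judged by comparing the compound group with a vehicle group. The outcome in the treated animals was divided by that in the controls.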

[1] = endpoint: mean survival time, dose: 100.0 mg/kg/injection, schedule: Q04DX003 (ip), vehicle: saline with Tween-80
[2] = endpoint: mean survival time, dose: 200.0 mg/kg/injection, schedule: Q04DX003 (ip), vehicle: saline with Tween-80
[3] = endpoint: mean survival time, dose: 400.0 mg/kg/injection, schedule: Q04DX003 (ip), vehicle: saline with Tween-80
[4] = endpoint: mean survival time, dose: 100.0 mg/kg/injection, schedule: Q01DX001 (ip), vehicle: saline
[5] = endpoint: mean survival time, dose: 200.0 mg/kg/injection, schedule: Q01DX001 (ip), vehicle: saline
[6] = endpoint: mean survival time, dose: 400.0 mg/kg/injection, schedule: Q01DX001 (ip), vehicle: saline

C/C=C(\C)C(=O)OC1C(C)C2(O)C(C=C(CO)CC3(O)C(=O)C(C)=CC32)C2C(C)(C)C12OC(=O)CCCCCCCCC (configuration not stated)
T/C (endpoint: mean survival time, dose: 125.0 micrograms/kg/injection, schedule: Q01DX009 (ip), vehicle: saline + alcohol): 90 % of control | T/C (endpoint: mean survival time, dose: 250.0 micrograms/kg/injection, schedule: Q01DX009 (ip), vehicle: saline + alcohol): 95 % of control

CC(N)(CO)C(=O)O (configuration not stated)
T/C (endpoint: mean survival time, dose: 100.0 mg/kg/injection, schedule: Q04DX003 (ip), vehicle: saline): 108 % of control | T/C (endpoint: mean survival time, dose: 200.0 mg/kg/injection, schedule: Q04DX003 (ip), vehicle: saline): 113 % of control | T/C (endpoint: mean survival time, dose: 400.0 mg/kg/injection, schedule: Q04DX003 (ip), vehicle: saline): 103 % of control

NCc1ccncc1
T/C (endpoint: mean survival time, dose: 100.0 mg/kg/injection, schedule: Q04DX002 (ip), vehicle: saline): 106 % of control | T/C (endpoint: mean survival time, dose: 200.0 mg/kg/injection, schedule: Q04DX002 (ip), vehicle: saline): 95 % of control | T/C (endpoint: mean survival time, dose: 400.0 mg/kg/injection, schedule: Q04DX002 (ip), vehicle: saline): 98 % of control

Cc1nc(SCc2ccc(Cl)cc2)[nH]c(=O)c1CCO
T/C [1]: 92 % of control | T/C [2]: 96 % of control | T/C [3]: 94 % of control

CCOC(=O)c1[nH]c(C)c(C(=O)OCC)c1C
T/C (endpoint: mean survival time, dose: 100.0 mg/kg/injection, schedule: Q04DX003 (ip), vehicle: Klucel (hydroxypropylcellulose) (HPC)): 103 % of control | T/C (endpoint: mean survival time, dose: 200.0 mg/kg/injection, schedule: Q04DX003 (ip), vehicle: Klucel (hydroxypropylcellulose) (HPC)): 103 % of control | T/C (endpoint: mean survival time, dose: 400.0 mg/kg/injection, schedule: Q04DX003 (ip), vehicle: Klucel (hydroxypropylcellulose) (HPC)): 95 % of control

BrC1(Br)C2CCCCCCC21 (configuration not stated)
T/C (endpoint: mean survival time, dose: 100.0 mg/kg/injection, schedule: Q01DX009 (ip), vehicle: saline with Tween-80): 91 % of control | T/C [1]: 87 % of control | T/C (endpoint: mean survival time, dose: 200.0 mg/kg/injection, schedule: Q01DX009 (ip), vehicle: saline with Tween-80): 87 % of control | T/C [2]: 98 % of control | T/C [3]: 96 % of control

O=C1C(NCCO)=C(N2CC2)C(=O)C(NCCO)=C1N1CC1
T/C (endpoint: median survival time, dose: 0.06 mg/kg/injection, schedule: Q01DX009 (ip), vehicle: saline): 122 % of control | T/C (endpoint: median survival time, dose: 0.25 mg/kg/injection, schedule: Q01DX009 (ip), vehicle: saline): 153 % of control | T/C (endpoint: median survival time, dose: 0.5 mg/kg/injection, schedule: Q01DX009 (ip), vehicle: saline): 171 % of control | T/C (endpoint: median survival time, dose: 1.0 mg/kg/injection, schedule: Q01DX009 (ip), vehicle: saline): 220 % of control | T/C (endpoint: median survival time, dose: 2.0 mg/kg/injection, schedule: Q01DX009 (ip), vehicle: saline): 86 % of control

CN=C(N)N/N=C/c1ccccc1
T/C (endpoint: mean survival time, dose: 7.5 mg/kg/injection, schedule: Q04DX003 (ip), vehicle: saline): 95 % of control | T/C (endpoint: mean survival time, dose: 15.0 mg/kg/injection, schedule: Q04DX003 (ip), vehicle: saline): 97 % of control | T/C (endpoint: mean survival time, dose: 30.0 mg/kg/injection, schedule: Q04DX003 (ip), vehicle: saline): 112 % of control

CC(N)C(=O)NC1C(CO)OC(n2cnc3c(N)ncnc32)C1O (configuration not stated)
T/C [4]: 100 % of control | T/C [5]: 97 % of control | T/C [6]: 100 % of control

CC(C)=C(c1ccccc1)c1c(N)ncnc1Cl
T/C [4]: 97 % of control | T/C [5]: 95 % of control | T/C [6]: 100 % of control

COc1cccc2c1C(=O)c1c(O)c3c(c(O)c1C2=O)C[C@@](O)(C(=O)CO)C[C@@H]3OC1CC(OC(C)=O)C(OC(C)=O)C(C)O1 (some centres not stated)
T/C (endpoint: mean survival time, dose: 1.56 mg/kg/injection, schedule: Q01DX009 (ip), vehicle: distilled water + Tween-80): 115 % of control | T/C (endpoint: mean survival time, dose: 3.12 mg/kg/injection, schedule: Q01DX009 (ip), vehicle: distilled water + Tween-80): 122 % of control | T/C (endpoint: mean survival time, dose: 6.25 mg/kg/injection, schedule: Q01DX009 (ip), vehicle: distilled water + Tween-80): 167 % of control | T/C (endpoint: mean survival time, dose: 12.5 mg/kg/injection, schedule: Q01DX009 (ip), vehicle: distilled water + Tween-80): 153 % of control and 203 % of control | T/C (endpoint: mean survival time, dose: 25.0 mg/kg/injection, schedule: Q01DX009 (ip), vehicle: distilled water + Tween-80): 93 % of control and 100 % of control | T/C (endpoint: median survival time, dose: 1.56 mg/kg/injection, schedule: Q01DX009 (ip), vehicle: distilled water + Tween-80): 113 % of control | T/C (endpoint: median survival time, dose: 6.25 mg/kg/injection, schedule: Q01DX009 (ip), vehicle: distilled water + Tween-80): 158 % of control and 176 % of control | T/C (endpoint: median survival time, dose: 12.5 mg/kg/injection, schedule: Q01DX009 (ip), vehicle: distilled water + Tween-80): 226 % of control and 250 % of control | T/C (endpoint: median survival time, dose: 25.0 mg/kg/injection, schedule: Q01DX009 (ip), vehicle: distilled water + Tween-80): 120 % of control and 95 % of control
